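Five compound concentrations were applied to cells in 96-well plates for 48 hours; endpoints were derived by simple linear interpolation of the resulting dose-response curve. TGI denotes the concentration required for complete inhibition of growth.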
Tests used:
Test in all cases: DTP human tumour cell line panel, 48 h
SK-MEL-2 melanoma = system: SK-MEL-2 melanoma
ACHN renal = system: ACHN renal
NCI/ADR-RES ovarian = system: NCI/ADR-RES ovarian
SK-MEL-5 melanoma = system: SK-MEL-5 melanoma
OVCAR-8 ovarian = system: OVCAR-8 ovarian
NCI-H23 lung = system: NCI-H23 lung
A549 NSCLC = system: A549 NSCLC
BT-549 breast = system: BT-549 breast
HL-60(TB) leukemia = system: HL-60(TB) leukemia
HCT-15 colon = system: HCT-15 colon
MDA-MB-435 = system: MDA-MB-435
PC-3 prostate = system: PC-3 prostate
SF-268 CNS = system: SF-268 CNS
MALME-3M melanoma = system: MALME-3M melanoma
SN12C renal = system: SN12C renal
CCRF-CEM leukemia = system: CCRF-CEM leukemia
M14 melanoma = system: M14 melanoma
OVCAR-3 ovarian = system: OVCAR-3 ovarian
SF-539 CNS = system: SF-539 CNS
DU-145 prostate = system: DU-145 prostate
T-47D breast = system: T-47D breast
MDA-MB-231 breast = system: MDA-MB-231 breast
K-562 leukemia = system: K-562 leukemia
HOP-92 NSCLC = system: HOP-92 NSCLC
U251 CNS = system: U251 CNS
KM12 colon = system: KM12 colon
UACC-62 melanoma = system: UACC-62 melanoma
OVCAR-4 ovarian = system: OVCAR-4 ovarian
SW-620 colon = system: SW-620 colon
HOP-62 NSCLC = system: HOP-62 NSCLC
OVCAR-5 ovarian = system: OVCAR-5 ovarian
COLO 205 colon = system: COLO 205 colon
LOX IMVI melanoma = system: LOX IMVI melanoma
RXF 393 renal = system: RXF 393 renal
HT29 colon = system: HT29 colon
EKVX NSCLC = system: EKVX NSCLC
CAKI-1 renal = system: CAKI-1 renal
NCI-H522 lung = system: NCI-H522 lung
IGROV1 ovarian = system: IGROV1 ovarian
MDA-N = system: MDA-N
SNB-19 CNS = system: SNB-19 CNS
RPMI-8226 leukemia = system: RPMI-8226 leukemia
MOLT-4 leukemia = system: MOLT-4 leukemia
HS 578T breast = system: HS 578T breast
NCI-H226 lung = system: NCI-H226 lung
SK-MEL-28 melanoma = system: SK-MEL-28 melanoma
HCT-116 colon = system: HCT-116 colon
UACC-257 melanoma = system: UACC-257 melanoma
TK-10 renal = system: TK-10 renal
786-0 renal = system: 786-0 renal
SF-295 CNS = system: SF-295 CNS
UO-31 renal = system: UO-31 renal
A498 renal = system: A498 renal
MCF7 breast = system: MCF7 breast

Measured: TGI

CNC(=O)c1ccccc1[S+]1c2cccc3cccc(c23)C(=O)N1C (centres undefined)
> 100 µM: SK-MEL-2 melanoma | ACHN renal | NCI/ADR-RES ovarian | SK-MEL-5 melanoma | OVCAR-8 ovarian | NCI-H23 lung | A549 NSCLC | BT-549 breast | HL-60(TB) leukemia | HCT-15 colon | MDA-MB-435 | PC-3 prostate | SF-268 CNS | MALME-3M melanoma | SN12C renal | CCRF-CEM leukemia | M14 melanoma | OVCAR-3 ovarian | SF-539 CNS | DU-145 prostate | T-47D breast | MDA-MB-231 breast | K-562 leukemia | HOP-92 NSCLC | U251 CNS | KM12 colon | UACC-62 melanoma | OVCAR-4 ovarian | SW-620 colon | HOP-62 NSCLC | OVCAR-5 ovarian | COLO 205 colon | LOX IMVI melanoma | RXF 393 renal | HT29 colon | EKVX NSCLC | CAKI-1 renal | NCI-H522 lung | IGROV1 ovarian | MDA-N | SNB-19 CNS | RPMI-8226 leukemia | MOLT-4 leukemia | HS 578T breast | NCI-H226 lung | SK-MEL-28 melanoma | HCT-116 colon | UACC-257 melanoma | TK-10 renal | 786-0 renal | SF-295 CNS | UO-31 renal | A498 renal | MCF7 breast
